Earlier results, collected in publication PMC4508061, “Selectivity Profiling and Biological Activity of Novel β-Carbolines as Potent and Selective DYRK1 Kinase Inhibitors” (PLoS ONE, 2015).
Like-named read-outs stand apart in the source and are kept apart here.

Assays:
HIPK4 = target: T1, HIPK4 (Homo sapiens, UniProt Q8NE63); parameters: purchased ProQinase (Freiburg, Germany); conditions: cited from earlier work
T1 sequence (Q8NE63 1-616): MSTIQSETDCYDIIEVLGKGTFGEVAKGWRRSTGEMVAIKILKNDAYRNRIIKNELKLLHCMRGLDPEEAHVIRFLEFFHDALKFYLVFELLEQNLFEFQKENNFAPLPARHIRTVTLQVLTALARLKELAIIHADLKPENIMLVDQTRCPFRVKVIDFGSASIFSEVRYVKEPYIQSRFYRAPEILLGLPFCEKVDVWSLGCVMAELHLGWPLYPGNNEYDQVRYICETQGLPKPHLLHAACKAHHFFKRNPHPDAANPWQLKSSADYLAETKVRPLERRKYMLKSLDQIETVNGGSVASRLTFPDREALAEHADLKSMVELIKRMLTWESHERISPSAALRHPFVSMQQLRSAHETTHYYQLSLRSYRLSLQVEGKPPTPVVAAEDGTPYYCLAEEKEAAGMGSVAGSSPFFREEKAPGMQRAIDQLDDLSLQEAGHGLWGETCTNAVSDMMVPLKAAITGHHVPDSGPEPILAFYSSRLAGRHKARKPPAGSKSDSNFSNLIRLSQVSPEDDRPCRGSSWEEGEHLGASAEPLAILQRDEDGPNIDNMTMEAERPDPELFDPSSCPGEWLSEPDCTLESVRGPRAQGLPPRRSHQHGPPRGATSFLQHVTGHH

PIM3 = PIM3 (Homo sapiens, UniProt Q86V86); parameters: purchased ProQinase (Freiburg, Germany); conditions: 10 μM; cited from earlier work
HIPK1 = HIPK1 (Homo sapiens, UniProt Q86Z02); parameters: purchased ProQinase (Freiburg, Germany); conditions: cited from earlier work
Chain of HIPK1 (Q86Z02 whole entry): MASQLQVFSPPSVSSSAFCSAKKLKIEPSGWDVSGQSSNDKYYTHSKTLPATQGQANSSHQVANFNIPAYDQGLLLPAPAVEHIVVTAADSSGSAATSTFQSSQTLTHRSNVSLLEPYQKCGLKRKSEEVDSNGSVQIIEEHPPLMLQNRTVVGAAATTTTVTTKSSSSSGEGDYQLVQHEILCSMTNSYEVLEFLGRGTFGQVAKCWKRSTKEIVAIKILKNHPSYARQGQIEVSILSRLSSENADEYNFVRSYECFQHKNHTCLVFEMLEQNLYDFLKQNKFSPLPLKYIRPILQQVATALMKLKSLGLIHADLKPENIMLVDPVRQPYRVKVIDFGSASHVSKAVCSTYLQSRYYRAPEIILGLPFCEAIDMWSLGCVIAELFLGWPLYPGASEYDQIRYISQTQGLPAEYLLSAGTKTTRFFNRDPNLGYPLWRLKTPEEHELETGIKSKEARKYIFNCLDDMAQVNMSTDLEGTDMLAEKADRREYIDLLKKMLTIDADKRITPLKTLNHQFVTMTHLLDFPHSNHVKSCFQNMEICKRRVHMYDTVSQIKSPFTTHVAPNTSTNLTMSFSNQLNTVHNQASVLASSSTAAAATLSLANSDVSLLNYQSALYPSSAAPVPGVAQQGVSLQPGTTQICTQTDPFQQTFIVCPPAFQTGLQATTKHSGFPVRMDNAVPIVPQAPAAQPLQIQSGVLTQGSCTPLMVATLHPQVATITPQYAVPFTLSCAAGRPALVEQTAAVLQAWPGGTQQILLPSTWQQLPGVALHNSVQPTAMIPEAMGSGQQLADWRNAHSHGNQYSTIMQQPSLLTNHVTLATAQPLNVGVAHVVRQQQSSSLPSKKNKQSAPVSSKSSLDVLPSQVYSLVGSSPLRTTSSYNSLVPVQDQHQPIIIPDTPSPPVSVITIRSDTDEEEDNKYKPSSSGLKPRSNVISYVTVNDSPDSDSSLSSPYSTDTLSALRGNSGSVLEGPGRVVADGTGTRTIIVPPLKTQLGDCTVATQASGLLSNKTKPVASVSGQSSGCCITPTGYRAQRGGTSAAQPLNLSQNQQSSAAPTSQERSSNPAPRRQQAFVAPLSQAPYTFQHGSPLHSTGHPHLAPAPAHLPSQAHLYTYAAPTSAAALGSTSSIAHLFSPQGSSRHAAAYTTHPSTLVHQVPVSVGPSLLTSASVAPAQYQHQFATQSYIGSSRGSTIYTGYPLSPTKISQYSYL

DYRK3 = target: T2, DYRK3 (Homo sapiens, UniProt O43781); conditions: cited from earlier work
T2 construct: purchased ProQinase (Freiburg, Germany)
T2 sequence (O43781 1-588): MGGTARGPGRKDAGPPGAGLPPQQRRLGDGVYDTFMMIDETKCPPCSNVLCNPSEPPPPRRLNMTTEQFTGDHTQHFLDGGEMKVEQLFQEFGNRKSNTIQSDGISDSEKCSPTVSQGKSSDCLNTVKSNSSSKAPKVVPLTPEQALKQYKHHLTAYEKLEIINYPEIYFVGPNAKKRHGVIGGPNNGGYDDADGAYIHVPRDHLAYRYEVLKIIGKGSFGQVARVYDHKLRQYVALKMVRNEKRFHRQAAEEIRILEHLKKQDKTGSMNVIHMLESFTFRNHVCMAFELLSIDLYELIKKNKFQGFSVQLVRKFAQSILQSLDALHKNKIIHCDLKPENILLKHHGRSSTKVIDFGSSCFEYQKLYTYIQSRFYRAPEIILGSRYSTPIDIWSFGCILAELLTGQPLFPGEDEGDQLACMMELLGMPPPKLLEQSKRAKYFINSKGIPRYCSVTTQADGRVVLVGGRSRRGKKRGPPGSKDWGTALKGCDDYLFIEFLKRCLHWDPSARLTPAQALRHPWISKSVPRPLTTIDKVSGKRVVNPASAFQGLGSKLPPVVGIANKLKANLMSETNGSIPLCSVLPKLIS

PIM1 = PIM1 (Homo sapiens, UniProt P11309); parameters: purchased ProQinase (Freiburg, Germany); conditions: cited from earlier work
Chain of PIM1 (P11309 whole entry): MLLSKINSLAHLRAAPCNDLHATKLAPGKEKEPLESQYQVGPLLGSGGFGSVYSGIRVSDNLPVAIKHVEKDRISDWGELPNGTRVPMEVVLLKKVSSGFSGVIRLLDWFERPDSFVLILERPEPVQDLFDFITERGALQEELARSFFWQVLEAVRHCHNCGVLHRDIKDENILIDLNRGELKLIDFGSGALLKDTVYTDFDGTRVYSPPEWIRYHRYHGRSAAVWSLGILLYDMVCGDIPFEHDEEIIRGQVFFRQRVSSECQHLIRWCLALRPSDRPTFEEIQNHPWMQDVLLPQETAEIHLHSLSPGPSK

Haspin = conditions: 10 μM; cited from earlier work
PIM2 = PIM2 (Homo sapiens, UniProt Q9P1W9); parameters: purchased ProQinase (Freiburg, Germany); conditions: cited from earlier work
Chain of PIM2 (Q9P1W9 whole entry): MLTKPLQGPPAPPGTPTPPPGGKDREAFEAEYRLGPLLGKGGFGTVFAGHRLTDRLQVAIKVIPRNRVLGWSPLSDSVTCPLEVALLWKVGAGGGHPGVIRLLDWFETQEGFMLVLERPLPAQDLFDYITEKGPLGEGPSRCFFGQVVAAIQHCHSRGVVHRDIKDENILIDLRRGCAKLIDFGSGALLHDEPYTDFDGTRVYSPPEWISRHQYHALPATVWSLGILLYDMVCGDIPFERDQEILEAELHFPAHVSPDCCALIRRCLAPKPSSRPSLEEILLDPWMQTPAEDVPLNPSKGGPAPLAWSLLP

CLK3 = target: T3, CLK3 (Homo sapiens, UniProt P49761); conditions: cited from earlier work
T3 construct: purchased ProQinase (Freiburg, Germany)
T3 sequence (P49761 whole entry): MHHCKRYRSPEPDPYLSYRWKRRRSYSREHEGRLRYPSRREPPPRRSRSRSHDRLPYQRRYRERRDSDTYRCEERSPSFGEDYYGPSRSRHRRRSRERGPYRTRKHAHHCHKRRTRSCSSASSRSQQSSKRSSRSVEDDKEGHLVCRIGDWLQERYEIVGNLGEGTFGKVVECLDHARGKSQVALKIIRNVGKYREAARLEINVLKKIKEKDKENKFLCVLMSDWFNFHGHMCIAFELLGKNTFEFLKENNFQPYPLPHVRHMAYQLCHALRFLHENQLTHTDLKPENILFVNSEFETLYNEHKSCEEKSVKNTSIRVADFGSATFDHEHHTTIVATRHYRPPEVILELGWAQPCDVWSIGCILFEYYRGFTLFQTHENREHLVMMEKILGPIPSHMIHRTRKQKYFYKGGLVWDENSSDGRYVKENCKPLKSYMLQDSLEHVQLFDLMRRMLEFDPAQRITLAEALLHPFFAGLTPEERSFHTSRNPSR

HIPK2 = HIPK2 (Homo sapiens, UniProt Q9H2X6); parameters: purchased ProQinase (Freiburg, Germany); conditions: 10 μM; cited from earlier work
DYRK2 = target: T4, DYRK2 (Homo sapiens, UniProt Q92630); conditions: cited from earlier work
T4 construct: purchased ProQinase (Freiburg, Germany)
T4 sequence (Q92630 1-601): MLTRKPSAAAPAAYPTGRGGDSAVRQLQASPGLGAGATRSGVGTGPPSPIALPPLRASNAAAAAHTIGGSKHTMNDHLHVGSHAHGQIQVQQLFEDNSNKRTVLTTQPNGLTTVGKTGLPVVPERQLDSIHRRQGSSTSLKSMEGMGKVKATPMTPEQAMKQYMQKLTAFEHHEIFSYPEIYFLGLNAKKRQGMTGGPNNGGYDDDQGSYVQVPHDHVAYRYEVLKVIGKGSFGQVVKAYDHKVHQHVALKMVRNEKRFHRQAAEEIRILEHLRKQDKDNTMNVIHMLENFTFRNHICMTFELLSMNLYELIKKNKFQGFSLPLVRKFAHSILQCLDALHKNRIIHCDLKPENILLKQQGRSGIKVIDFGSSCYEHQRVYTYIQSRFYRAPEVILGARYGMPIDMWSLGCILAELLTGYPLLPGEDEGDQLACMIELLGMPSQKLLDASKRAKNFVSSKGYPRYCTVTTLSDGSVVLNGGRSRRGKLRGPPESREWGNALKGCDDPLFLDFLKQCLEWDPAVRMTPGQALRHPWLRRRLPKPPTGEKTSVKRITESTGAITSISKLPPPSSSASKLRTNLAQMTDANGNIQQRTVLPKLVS

CLK1 = CLK1 (Homo sapiens, UniProt P49759); parameters: purchased ProQinase (Freiburg, Germany); conditions: cited from earlier work
Chain of CLK1 (P49759 whole entry): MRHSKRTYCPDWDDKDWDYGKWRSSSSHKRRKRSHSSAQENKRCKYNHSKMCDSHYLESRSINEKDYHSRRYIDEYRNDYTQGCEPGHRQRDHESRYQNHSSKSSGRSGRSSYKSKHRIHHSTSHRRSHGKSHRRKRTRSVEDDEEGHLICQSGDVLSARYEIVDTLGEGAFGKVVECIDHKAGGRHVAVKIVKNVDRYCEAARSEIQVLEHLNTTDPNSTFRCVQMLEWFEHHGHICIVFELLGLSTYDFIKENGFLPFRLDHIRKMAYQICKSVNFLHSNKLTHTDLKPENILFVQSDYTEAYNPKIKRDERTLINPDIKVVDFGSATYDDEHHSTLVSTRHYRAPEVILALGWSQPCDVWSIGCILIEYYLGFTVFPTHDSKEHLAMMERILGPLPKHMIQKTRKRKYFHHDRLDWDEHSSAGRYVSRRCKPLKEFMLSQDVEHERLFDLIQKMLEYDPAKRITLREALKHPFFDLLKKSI

IRAK1 = IRAK1 (Homo sapiens, UniProt P51617); parameters: purchased ProQinase (Freiburg, Germany); conditions: 10 μM; cited from earlier work
Chain of IRAK1 (P51617 whole entry): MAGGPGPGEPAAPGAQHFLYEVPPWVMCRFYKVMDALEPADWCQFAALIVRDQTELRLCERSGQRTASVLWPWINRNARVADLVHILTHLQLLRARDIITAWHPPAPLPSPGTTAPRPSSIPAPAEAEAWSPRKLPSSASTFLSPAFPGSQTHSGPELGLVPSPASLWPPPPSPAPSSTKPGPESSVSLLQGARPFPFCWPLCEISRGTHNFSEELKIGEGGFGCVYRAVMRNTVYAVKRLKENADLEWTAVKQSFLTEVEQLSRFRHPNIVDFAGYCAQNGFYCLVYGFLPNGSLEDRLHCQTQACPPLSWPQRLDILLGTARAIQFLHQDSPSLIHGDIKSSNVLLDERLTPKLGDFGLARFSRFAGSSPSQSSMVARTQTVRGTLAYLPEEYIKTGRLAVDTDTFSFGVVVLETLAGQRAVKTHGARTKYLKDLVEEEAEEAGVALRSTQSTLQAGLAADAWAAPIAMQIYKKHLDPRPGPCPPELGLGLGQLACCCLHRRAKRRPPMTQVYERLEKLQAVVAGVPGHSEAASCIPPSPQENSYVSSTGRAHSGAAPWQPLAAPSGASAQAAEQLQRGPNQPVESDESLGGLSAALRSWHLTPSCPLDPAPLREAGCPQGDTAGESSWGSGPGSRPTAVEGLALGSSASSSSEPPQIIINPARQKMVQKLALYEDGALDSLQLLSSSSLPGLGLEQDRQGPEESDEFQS

CLK2 = target: T5, CLK2 (Homo sapiens, UniProt P49760); conditions: cited from earlier work
T5 construct: purchased ProQinase (Freiburg, Germany)
T5 sequence (P49760 whole entry): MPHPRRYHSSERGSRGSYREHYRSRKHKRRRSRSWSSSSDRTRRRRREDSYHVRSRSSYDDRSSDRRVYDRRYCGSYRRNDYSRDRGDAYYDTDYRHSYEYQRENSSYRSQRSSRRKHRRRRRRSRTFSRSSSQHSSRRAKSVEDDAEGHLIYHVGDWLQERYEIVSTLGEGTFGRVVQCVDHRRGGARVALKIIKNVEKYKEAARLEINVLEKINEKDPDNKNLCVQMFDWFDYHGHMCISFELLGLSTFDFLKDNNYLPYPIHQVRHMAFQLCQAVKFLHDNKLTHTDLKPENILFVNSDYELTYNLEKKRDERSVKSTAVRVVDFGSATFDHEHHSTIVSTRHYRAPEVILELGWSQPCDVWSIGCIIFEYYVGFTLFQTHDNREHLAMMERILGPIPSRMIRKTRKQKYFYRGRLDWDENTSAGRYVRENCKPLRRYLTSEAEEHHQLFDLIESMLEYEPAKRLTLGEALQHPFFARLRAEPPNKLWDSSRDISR

DYRK1A = conditions: cited from earlier work
HIPK3 = HIPK3 (Homo sapiens, UniProt Q9H422); parameters: purchased ProQinase (Freiburg, Germany); conditions: 10 μM; cited from earlier work
DYRK1B = DYRK1B (Homo sapiens, UniProt Q9Y463); parameters: purchased ProQinase (Freiburg, Germany); conditions: cited from earlier work
Chain of DYRK1B (Q9Y463 whole entry): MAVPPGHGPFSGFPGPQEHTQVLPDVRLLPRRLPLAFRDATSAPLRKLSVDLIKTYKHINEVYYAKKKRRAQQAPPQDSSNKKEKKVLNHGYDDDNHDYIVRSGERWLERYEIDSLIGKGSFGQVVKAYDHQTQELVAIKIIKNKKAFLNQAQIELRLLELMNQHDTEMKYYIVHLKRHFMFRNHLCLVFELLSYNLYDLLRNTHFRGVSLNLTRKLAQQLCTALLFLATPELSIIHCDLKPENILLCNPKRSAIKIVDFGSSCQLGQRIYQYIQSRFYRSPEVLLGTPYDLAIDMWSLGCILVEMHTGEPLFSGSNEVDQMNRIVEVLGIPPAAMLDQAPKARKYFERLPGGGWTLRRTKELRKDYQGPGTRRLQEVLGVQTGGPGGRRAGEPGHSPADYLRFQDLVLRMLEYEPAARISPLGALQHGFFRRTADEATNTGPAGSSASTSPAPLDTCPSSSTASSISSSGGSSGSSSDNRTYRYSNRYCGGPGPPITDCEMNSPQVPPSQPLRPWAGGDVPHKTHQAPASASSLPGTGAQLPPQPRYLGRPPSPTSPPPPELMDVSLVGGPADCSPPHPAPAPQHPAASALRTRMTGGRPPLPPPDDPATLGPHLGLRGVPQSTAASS

MAO-A = tested on: MAO-A; parameters: method as in PMID 25240617; conditions: 1 μM; cited from earlier work
DYRK4 = target: T6, DYRK4 (Homo sapiens, UniProt Q9NR20); conditions: 5 μM; cited from earlier work
T6 construct: purchased ProQinase (Freiburg, Germany)

COc1ccc2c3ccnc(C(F)(F)F)c3n(CCCCN)c2c1 [LDN-211898]
Residual activity (% of control) (HIPK4; 10 μM): 72 % of control | Residual activity (% of control) (PIM3): 11 % of control | Residual activity (% of control) (HIPK1; 10 μM): 59 % of control | Residual activity (% of control) (DYRK3; 10 μM): 3 % of control | Residual activity (% of control) (PIM1; 10 μM): 9 % of control | Residual activity (% of control) (Haspin): 0 % of control | Residual activity (% of control) (PIM2; 10 μM): 36 % of control | Residual activity (% of control) (CLK3; 10 μM): 63 % of control | Residual activity (% of control) (HIPK2): 47 % of control | Residual activity (% of control) (DYRK2; 10 μM): 14 % of control | Residual activity (% of control) (CLK1; 10 μM): 0 % of control | Residual activity (% of control) (IRAK1): 47 % of control | Residual activity (% of control) (CLK2; 10 μM): 1 % of control | Residual activity (% of control) (DYRK1A; 10 μM): 0 % of control | Residual activity (% of control) (HIPK3): 51 % of control | Residual activity (% of control) (DYRK1B; 10 μM): 2 % of control

CCCCCCCn1c2cc(OC)ccc2c2ccnc(C)c21 [N9-heptyl harmine]
inhibition of MAO-A (MAO-A): 13% | inhibition of DYRK1A (DYRK1A; 1 μM): 85%

c1ccc(-c2cc(-c3cncs3)cs2)cc1 [Thiophene 29]
Residual activity (% of control) (HIPK4; 5 μM): 93 % of control | Residual activity (% of control) (HIPK1; 5 μM): 96 % of control | Residual activity (% of control) (DYRK3; 5 μM): 34 % of control | Residual activity (% of control) (PIM1; 5 μM): 78 % of control | Residual activity (% of control) (PIM2; 5 μM): 93 % of control | Residual activity (% of control) (CLK3; 5 μM): 88 % of control | Residual activity (% of control) (DYRK4): 87 % of control | Residual activity (% of control) (DYRK2; 5 μM): 7 % of control | Residual activity (% of control) (CLK1; 5 μM): 4 % of control | Residual activity (% of control) (CLK2; 5 μM): 28 % of control | Residual activity (% of control) (DYRK1A; 5 μM): 10 % of control | Residual activity (% of control) (DYRK1B; 5 μM): 0 % of control
